Test [1] has as its system Mino cells. Nature of the test: Inhibitory activity on Mino cell proliferation (MTS). Format: cell-based. Conditions: Homo sapiens, 168 h incubation. The procedure:
The anti-tumor efficacy of the compounds was tested by measuring their inhibitory effects on OCI-LY10 and Mino cell proliferation. OCI-LY10 and Mino cells were cultured in RPMI-1640 medium containing 10% fetal calf serum. OCI-LY10 and Mino cells were digested, inoculated in a 96-well plate at a cell concentration of 10000 cells/well, and incubated overnight at 37° C., 5% CO2. Compounds of different concentrations (1000 nM, 4-fold dilution, 8 points) were added to the 96-well plate and incubated for 72 h (LY10) or 168 h (Mino) at 37° C. and 5% CO2, and then 20 uL of MTS was added to each well. After incubation for 2 h, 25 μl of 10% SDS was added to each well to terminate the reaction. The absorbance at 490 nm and 650 nm were measured with a microplate reader. IC50 was calculated using GraphPad Prism 5.0.

Test [2] addresses T1, BTK (Homo sapiens, UniProt Q06187).
T1 construct: endogenous in cells; host or cells: Mino cells
Description: BTK degradation activity test in Mino cells. Conditions: 16 h incubation, Western blot or Elisa. Format: cell-based. A digest of the protocol: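 DC50 derived by curve fitting of BTK degradation rates versus untreated control across compound concentrations. Mino cells were exposed for 16 h; BTK levels in lysates, normalised via BCA protein, measured by Western blot or ELISA.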
In general terms: In western blotting, separated proteins are transferred to a membrane and probed.

T1 sequence (Q06187 whole entry): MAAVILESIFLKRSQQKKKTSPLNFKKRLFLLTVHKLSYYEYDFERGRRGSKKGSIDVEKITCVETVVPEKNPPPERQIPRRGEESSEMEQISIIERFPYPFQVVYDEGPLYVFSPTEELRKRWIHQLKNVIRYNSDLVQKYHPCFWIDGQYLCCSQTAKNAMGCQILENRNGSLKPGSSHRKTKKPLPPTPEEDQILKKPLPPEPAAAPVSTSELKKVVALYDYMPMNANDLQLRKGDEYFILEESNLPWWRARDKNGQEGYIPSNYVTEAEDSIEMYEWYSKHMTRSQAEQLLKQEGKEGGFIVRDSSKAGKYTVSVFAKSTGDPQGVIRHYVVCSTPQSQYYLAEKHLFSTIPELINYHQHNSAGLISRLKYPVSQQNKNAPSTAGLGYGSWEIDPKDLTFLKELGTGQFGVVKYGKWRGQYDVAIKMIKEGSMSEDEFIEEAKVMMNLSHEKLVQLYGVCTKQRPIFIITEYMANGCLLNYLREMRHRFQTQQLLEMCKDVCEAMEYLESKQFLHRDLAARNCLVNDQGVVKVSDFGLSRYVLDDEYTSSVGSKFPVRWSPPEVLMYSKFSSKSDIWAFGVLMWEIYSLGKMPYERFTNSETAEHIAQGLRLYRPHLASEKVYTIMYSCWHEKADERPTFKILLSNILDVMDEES

As to `CN1CCN([C@@H]2CCCN(c3nnc(C(N)=O)c(Nc4ccc(N5CCN(C[C@@H]6CCN(c7ccc(N8CCC(=O)NC8=O)cc7)C6)CC5)c(F)c4)n3)C2)C1=O` [Compound 152, 5-((4-(4-(((S)-1-(4-(2,4-dioxotetrahydropyrimidin-1(2H)-yl)phenyl)pyrrolidin-3-yl)methyl)piperazin-1-yl)-3-fluorophenyl)amino)-3-((R)-3-(3-methyl-2-oxoimidazolin-1-yl)piperidin-1-yl)-1,2,4-triazin-6-carboxamide], in test [1], the IC50 (as a rule, the point on the concentration scale where inhibition reaches its midpoint) amounted to 2.8 nM. Moreover, the DC50 (commonly the concentration at which degradation of the target reaches its halfway point) in test [2] was less than 1 nM.

For the compound `CN1CCN([C@@H]2CCCN(c3nnc(C(N)=O)c(Nc4ccc(N5CCN(CC6CCN(c7ccc(C(=O)NC8CCC(=O)NC8=O)c(F)c7F)CC6)CC5)c(F)c4)n3)C2)C1=O` (stereo partly drawn) [Compound 182, 5-((4-(4-((1-(4-((2,6-dioxopiperidin-3-yl)carbamoyl)-2,3-difluorophenyl)piperidin-4-yl)methyl)piperazin-1-yl)-3-fluorophenyl)amino)-3-((R)-3-(3-methyl-2-oxoimidazolidin-1-yl)piperidin-1-yl)-1,2,4-triazin-6-carboxamide], the IC50 in test [1] is 3.19 nM. Besides, in test [2], the DC50 was less than 1 nM.

For the compound `CN1CCN([C@@H]2CCCN(c3nnc(C(N)=O)c(Nc4ccc(N5CCN(CC6CCN(c7ccc(C(=O)NC8CCC(=O)NC8=O)c8c7OCCO8)CC6)CC5)c(F)c4)n3)C2)C1=O` (stereo partly drawn) [Compound 183, 5-((4-(4-((1-(8-((2,6-dioxopiperidin-3-yl)carbamoyl)-2,3-dihydrobenzo[b][1,4]dioxan-5-yl)piperidin-4-yl)methyl)piperazin-1-yl)-3-fluorophenyl)amino)-3-((R)-3-(3-methyl-2-oxoimidazolidin-1-yl)piperidin-1-yl)-1,2,4-triazin-6-carboxamide], the IC50 in test [1] is 4.85 nM. Moreover, in test [2], the DC50 was less than 1 nM.

`CN1CCN([C@@H]2CCCN(c3nnc(C(N)=O)c(Nc4ccc(N5CCN(CC6CCN(c7ccc(N8CCC(=O)NC8=O)cc7F)CC6)CC5)c(F)c4)n3)C2)C1=O` [Compound 186, (R)-5-((4-(4-((1-(4-(2,4-dioxotetrahydropyrimidin-1(2H)-yl)-2-fluorophenyl)piperidin-4-yl)methyl)piperazin-1-yl)-3-fluorophenyl)amino)-3-(3-(3-methyl-2-oxoimidazolidin-1-yl)piperidin-1-yl)-1,2,4-triazin-6-carboxamide] displayed an IC50 in test [1] of 2.26 nM. Besides, the DC50 in test [2] is less than 1 nM. The corresponding values for `CN1CCN([C@@H]2CCCN(c3nnc(C(N)=O)c(Nc4ccc(N5CCN(CC6CCN(c7ccc(N8CCC(=O)NC8=O)c(C(F)(F)F)c7)CC6)CC5)c(F)c4)n3)C2)C1=O` [Compound 187, (R)-5-((4-(4-((1-(4-(2,4-dioxotetrahydropyrimidin-1(2H)-yl)-3-(trifluoromethyl)phenyl)piperidin-4-yl)methyl)piperazin-1-yl)-3-fluorophenyl)amino)-3-(3-(3-methyl-2-oxoimidazolidin-1-yl)piperidin-1-yl)-1,2,4-triazin-6-carboxamide] are 2.07 nM and less than 1 nM.

Regarding `Cc1cc(N2CCC(CN3CCC(c4ccc(Nc5nc(N6CCC[C@@H](N7CCN(C)C7=O)C6)c(F)nc5C(N)=O)cc4F)CC3)CC2)ccc1N1CCC(=O)NC1=O` [Compound 241, (R)-3-((4-(1-((1-(4-(2,4-dioxotetrahydropyrimidin-1(2H)-yl)-3-methylphenyl)piperidin-4-yl)methyl)piperidin-4-yl)-3-fluorophenyl)amino)-6-fluoro-5-(3-(3-methyl-2-oxoimidazolidin-1-yl)piperidin-1-yl)pyrazin-2-carboxamide], the DC50 in test [2] is less than 1 nM. On the same count and under the same terms, to `Cc1cc(N2CCC(CN3CCC(c4ccc(Nc5c(F)c(N6CCC[C@@H](N7CCN(C)C7=O)C6)c(F)c(F)c5C(N)=O)cc4F)CC3)CC2)ccc1N1CCC(=O)NC1=O` [Compound 242, (R)-2-((4-(1-((1-(4-(2,4-dioxotetrahydropyrimidin-1(2H)-yl)-3-methylphenyl)piperidin-4-yl)methyl)piperidin-4-yl)-3-fluorophenyl)amino)-3,5,6-trifluoro-4-(3-(3-methyl-2-oxoimidazolidin-1-yl)piperidin-1-yl)benzamide] belongs less than 1 nM. The same measure, in the same setting: under `CN1CCN([C@@H]2CCCN(c3nnc(C(N)=O)c(Nc4ccc(N5CCN(CC6CCN(c7ccc8c(C9CCC(=O)NC9=O)noc8c7)CC6)CC5)c(F)c4)n3)C2)C1=O` (stereo partly drawn) [Compound 243, 5-((4-(4-((1-(3-(2,6-dioxopiperidin-3-yl)benzo[d]isoxazol-6-yl)piperidin-4-yl)methyl)piperazin-1-yl)-3-fluorophenyl)amino)-3-((R)-3-(3-methyl-2-oxoimidazolidin-1-yl)piperidin-1-yl)-1,2,4-triazin-6-carboxamide] stands less than 1 nM. In the case of `CN1CCN([C@@H]2CCCN(c3nnc(C(N)=O)c(Nc4ccc(N5CCN(CC6CCN(c7ccn8c(C9CCC(=O)NC9=O)cnc8c7)CC6)CC5)c(F)c4)n3)C2)C1=O` (stereo partly drawn) [Compound 244, 5-((4-(4-((1-(3-(2,6-dioxopiperidin-3-yl)imidazo[1,2-a]pyridin-7-yl)piperidin-4-yl)methyl)piperazin-1-yl)-3-fluorophenyl)amino)-3-((R)-3-(3-methyl-2-oxoimidazolidin-1-yl)piperidin-1-yl)-1,2,4-triazin-6-carboxamide], the DC50 in test [2] was less than 1 nM. On the same count and under the same terms, to `CN1CCN([C@@H]2CCCN(c3nnc(C(N)=O)c(Nc4ccc(N5CCN(CC6CCN(c7ccn8c(N9CCC(=O)NC9=O)cnc8c7)CC6)CC5)c(F)c4)n3)C2)C1=O` [Compound 245] belongs less than 1 nM. Still for that read-out and setting: to `CN1CCN([C@@H]2CCCN(c3nnc(C(N)=O)c(Nc4ccc(N5CCN(CC#Cc6ccn7c(N8CCC(=O)NC8=O)cnc7c6)CC5)c(F)c4)n3)C2)C1=O` [Compound 246, (R)-5-((4-(4-(3-(3-(2,4-dioxotetrahydropyrimidin-1(2H)-yl)imidazo[1,2-a]pyridin-7-yl)propan-2-yn-1-yl)piperazin-1-yl)-3-fluorophenyl)amino)-3-(3-(3-methyl-2-oxoimidazolidin-1-yl)piperidin-1-yl)-1,2,4-triazin-6-carboxamide] belongs less than 1 nM. Consider `CN1CCN([C@@H]2CCCN(c3nnc(C(N)=O)c(Nc4ccc(N5CCN(CC6CCN(c7ccc8c9c(cccc79)C(=O)N8C7CCC(=O)NC7=O)CC6)CC5)c(F)c4)n3)C2)C1=O` (stereo partly drawn) [Compound 247, 5-((4-(4-((1-(1-(2,6-dioxopiperidin-3-yl)-2-oxo-1,2-dihydrobenzo[cd]indol-6-yl)piperidin-4-yl)methyl)piperazin-1-yl)-3-fluorophenyl)amino)-3-((R)-3-(3-methyl-2-oxoimidazolidin-1-yl)piperidin-1-yl)-1,2,4-triazin-6-carboxamide], for which the 50% degradation concentration (DC50) in test [2] was less than 1 nM.

As for `CN1CCN([C@@H]2CCCN(c3nnc(C(N)=O)c(Nc4ccc(N5CCN(CC#Cc6ccc7c8c(cccc68)C(=O)N7C6CCC(=O)NC6=O)CC5)c(F)c4)n3)C2)C1=O` (stereo partly drawn) [Compound 248, 5-((4-(4-(3-(1-(2,6-dioxopiperidin-3-yl)-2-oxo-1,2-dihydrobenzo[cd]indol-6-yl)propan-2-yn-1-yl)piperazin-1-yl)-3-fluorophenyl)amino)-3-((R)-3-(3-methyl-2-oxoimidazolidin-1-yl)piperidin-1-yl)-1,2,4-triazin-6-carboxamide], the DC50 in test [2] is less than 1 nM. Still for that read-out and setting: to `CN1CCN([C@@H]2CCCN(c3nnc(C(N)=O)c(Nc4ccc(N5CCN(CC6CCN(c7cccc8c(C(=O)NC9CCC(=O)NC9=O)cccc78)CC6)CC5)c(F)c4)n3)C2)C1=O` (stereo partly drawn) [Compound 249, 5-((4-(4-((1-(5-((2,6-dioxopiperidin-3-yl)carbamoyl)naphthalen-1-yl)piperidin-4-yl)methyl)piperazin-1-yl)-3-fluorophenyl)amino)-3-((R)-3-(3-methyl-2-oxoimidazolidin-1-yl)piperidin-1-yl)-1,2,4-triazin-6-carboxamide] belongs less than 1 nM; to `CN1CCN([C@@H]2CCCN(c3nnc(C(N)=O)c(Nc4ccc(N5CCN(CC6CCN(c7ccnc8c(C(=O)NC9CCC(=O)NC9=O)cccc78)CC6)CC5)c(F)c4)n3)C2)C1=O` (stereo partly drawn) [Compound 250, 4-(4-((4-(4-((6-carbamoyl-3-((R)-3-(3-methyl-2-oxoimidazolidin-1-yl)piperidin-1-yl)-1,2,4-triazin-5-yl)amino)-2-fluorophenyl)piperazin-1-yl)methyl)piperidin-1-yl)-N-(2,6-dioxopiperidin-3-yl)quinolin-8-carboxamide], less than 1 nM. In turn, `CN1CCN([C@@H]2CCCN(c3nnc(C(N)=O)c(Nc4ccc(N5CCN(CC6CCN(c7ccc(NC8CCC(=O)NC8=O)cc7F)CC6)CC5)c(F)c4)n3)C2)C1=O` (some centres unmarked) [Compound 251] showed a DC50 in test [2] of less than 1 nM. Same read-out and setting: to `CN1CCN([C@@H]2CCCN(c3nnc(C(N)=O)c(Nc4ccc(N5CCN(CC6CCN(c7ccc(NC8CCC(=O)NC8=O)cc7C(F)(F)F)CC6)CC5)c(F)c4)n3)C2)C1=O` (some centres unmarked) [Compound 252] belongs less than 1 nM; to `CN1CCN([C@@H]2CCCN(c3nnc(C(N)=O)c(Nc4ccc(N5CCN(CC6CCN(c7ccc(NC8CCC(=O)NC8=O)cc7)CC6)CC5)c(F)c4)n3)C2)C1=O` (stereo partly drawn) [Compound 253, 5-((4-(4-((1-(4-((2,6-dioxopiperidin-3-yl)amino)phenyl)piperidin-4-yl)methyl)piperazin-1-yl)-3-fluorophenyl)amino)-3-((R)-3-(3-methyl-2-oxoimidazolidin-1-yl)piperidin-1-yl)-1,2,4-triazin-6-carboxamide], less than 1 nM.

The values above are taken from patent US20240360146A1, “BRUTON'S TYROSINE KINASE AND MUTANT DEGRADER, COMPOSITION AND APPLICATION THEREOF” (HANGZHOU HEALZEN THERAPEUTICS CO., LTD., priority 2021, published 2024).
